Measurements published in BindingDB's records for doi:10.1021/ml4000595 (Temple University, 2013).

What was measured:
[1] = target: T1, Cytochrome P450 11B2, mitochondrial (Homo sapiens, UniProt P19099); assay: Inhibition of human CYP11B2 expressed in hamster V79MZ cells using [1,2-3H]11-deoxycorticosterone as substrate preincubated for 60 mins prior to substrate addition measured after 50 mins by HPLC analysis
T1 sequence (P19099 whole entry): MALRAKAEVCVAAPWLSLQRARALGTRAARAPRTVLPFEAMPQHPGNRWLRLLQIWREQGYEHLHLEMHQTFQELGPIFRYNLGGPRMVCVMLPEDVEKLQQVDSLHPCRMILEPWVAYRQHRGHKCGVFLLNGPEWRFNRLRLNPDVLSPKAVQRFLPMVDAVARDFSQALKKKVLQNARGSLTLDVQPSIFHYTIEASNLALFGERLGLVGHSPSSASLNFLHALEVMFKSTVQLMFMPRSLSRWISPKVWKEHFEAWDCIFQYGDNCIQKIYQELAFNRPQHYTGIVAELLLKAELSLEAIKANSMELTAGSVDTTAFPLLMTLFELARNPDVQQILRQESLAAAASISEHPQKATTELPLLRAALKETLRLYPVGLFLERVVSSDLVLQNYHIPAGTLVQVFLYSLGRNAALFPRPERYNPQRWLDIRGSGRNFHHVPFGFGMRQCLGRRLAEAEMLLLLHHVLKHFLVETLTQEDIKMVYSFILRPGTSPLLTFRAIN

[2] = target: T2, Cytochrome P450 11B1, mitochondrial (Homo sapiens, UniProt P15538); assay: Inhibition of human CYP11B1 expressed in hamster V79MZ cells using [1,2-3H]11-deoxycorticosterone as substrate preincubated for 60 mins prior to substrate addition measured after 25 mins by HPLC analysis
T2 sequence (P15538 whole entry): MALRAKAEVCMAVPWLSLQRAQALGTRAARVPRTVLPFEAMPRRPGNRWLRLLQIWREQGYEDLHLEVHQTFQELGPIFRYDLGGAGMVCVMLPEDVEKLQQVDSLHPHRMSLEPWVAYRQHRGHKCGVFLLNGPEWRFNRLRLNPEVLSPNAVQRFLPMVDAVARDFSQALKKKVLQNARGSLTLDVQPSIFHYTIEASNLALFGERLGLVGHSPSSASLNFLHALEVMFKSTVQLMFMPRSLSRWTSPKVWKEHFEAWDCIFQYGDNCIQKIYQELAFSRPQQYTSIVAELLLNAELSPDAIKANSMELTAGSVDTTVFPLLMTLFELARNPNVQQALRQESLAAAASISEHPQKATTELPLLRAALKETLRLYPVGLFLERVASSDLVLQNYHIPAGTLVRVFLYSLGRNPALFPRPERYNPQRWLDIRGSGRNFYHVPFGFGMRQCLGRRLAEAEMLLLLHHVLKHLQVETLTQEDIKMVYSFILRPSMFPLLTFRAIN

SMILES | IC50 [1] [nM] | IC50 [2] [nM]
c1ccc2c(-c3ccc(Cn4ccnc4)cn3)cccc2c1 | 2080 | 42
c1csc(-c2ncccc2Cn2ccnc2)c1 | 251 | 16
c1ccc2c(-c3ccc(Cn4ccnc4)cn3)csc2c1 | 1160 | 40
Oc1ccc(-c2ccc(Cn3ccnc3)cn2)cc1F | 237 | 17
Brc1ncccc1Cn1ccnc1 | 911 | 61
Nc1ccccc1-c1ccc(Cn2ccnc2)cn1 | 2110 | 101
Nc1cccc(-c2ccc(Cn3ccnc3)cn2)c1 | 3410 | 110
Nc1ccc(-c2ccc(Cn3ccnc3)cn2)cc1 | 528 | 106
